Laboratory results reported in patent US8481571B2, “Anti-coronavirus compounds” (Academia Sinica, priority 2004, dated 2013).

Legend:
[1] = test system: severe acute respiratory syndrome virus; experiment: organism not typed; type: cell-based; conditions: Vero C1008

**Q.** With `COC(=O)[C@H]1[C@H]2C[C@H]3c4[nH]c5cc(OC)ccc5c4CCN3C[C@H]2C[C@@H](OC(=O)c2cc(OC)c(OC)c(OC)c2)[C@@H]1OC` [Compound 21] as the molecule, how does the EC50 [1] read?
**A.** Its EC50 is 0.85 to 100 µM.

**Q.** How did the EC50 [1] turn out when `Cc1cccc(C)c1OCC(=O)N[C@@H](Cc1ccccc1)C[C@H](O)[C@H](Cc1ccccc1)NC(=O)[C@H](CC(C)C)NC(=O)CSc1ccccn1` [Compound 28] was run?
**A.** The EC50 was 0.85 to 100 µM.

**Q.** `CC1(C)CCC2(C(=O)O)CC[C@@]3(C)C(=CCC4[C@@]5(C)CCC(O[C@@H]6OC(O)[C@@H](O)[C@@H](O)C6O[C@@H]6OC(O)[C@@H](O)[C@@H](O)C6O)C(C)(CO)C5CC[C@]43C)C2C1` (stereo partly shown) [Compound 16] was tested. Which EC50 [1] did it give?
**A.** Its EC50 is 0.85 to 100 µM.

**Q.** For `Cc1cccc(C)c1OCC(=O)N[C@@H](Cc1ccccc1)C[C@H](O)[C@H](Cc1ccccc1)NC(=O)[C@H](CC(C)C)NC(=O)c1ccc(C(F)(F)F)cc1` [Compound 31], which EC50 [1] is on record?
**A.** The EC50 was 0.85 to 100 µM.

**Q.** Which EC50 [1] does the source give for `Cc1cccc(C(=O)N[C@@H](CC(C)C)C(=O)N[C@@H](Cc2ccccc2)[C@@H](O)C[C@H](Cc2ccccc2)NC(=O)COc2c(C)cccc2C)c1` [Compound 27] here?
**A.** Its EC50 is 0.85 to 100 µM.

**Q.** How did the EC50 [1] turn out when `CC(C)=CCC[C@](C)(CO[C@@H]1OC(CO[C@@H]2OC(CO)[C@@H](O)[C@@H](O)C2O)[C@@H](O)[C@@H](O)C1O)C1CC[C@@]2(C)C1C(O)CC1[C@@]3(C)CCC(O[C@@H]4OC(CO)[C@@H](O)[C@@H](O)C4O[C@@H]4OC(CO)[C@@H](O)[C@@H](O)C4O)C(C)(C)C3CC[C@]12C` (stereo partly shown) [Compound 17] was run?
**A.** Its EC50 is 0.85 to 100 µM.

**Q.** `COC(=O)[C@H]1[C@H]2C[C@@H]3c4[nH]c5cc(OC)ccc5c4CCN3C[C@H]2C[C@@H](OC(=O)c2cc(OC)c(OC)c(OC)c2)[C@@H]1OC` [Compound 13] was tested. Which “inhibitory effect on cell growth” value (Vero E6 cells) did it give?
**A.** Its value is “none of them exhibited inhibitory effect on cell growth”.

**Q.** What about the EC50 [1] of the same molecule?
**A.** The EC50 was 0.85 to 100 µM.

**Q.** Which EC50 [1] does the source give for `Cc1cccc(C)c1OCC(=O)N[C@@H](Cc1ccccc1)C[C@H](O)[C@H](Cc1ccccc1)NC(=O)[C@H](CC(C)C)NC(=O)c1cc2ccccc2[nH]1` [Compound 29] here?
**A.** Its EC50 is 0.85 to 100 µM.

**Q.** How did the EC50 [1] turn out when `Cc1cccc(C)c1OCC(=O)N[C@@H](Cc1ccccc1)C[C@H](O)[C@H](Cc1ccccc1)NC(=O)[C@H](CC(C)C)NC(=O)C1=CCOc2ccc(Cl)cc21` [Compound 34] was run?
**A.** The EC50 was 0.85 to 100 µM.

**Q.** How did the EC50 [1] turn out when `COC(=O)[C@@H]1[C@H]2C[C@H]3c4[nH]c5ccccc5c4CCN3C[C@@H]2CC[C@@H]1O` [Compound 24] was run?
**A.** Its EC50 is 0.85 to 100 µM.

**Q.** For `Cc1cccc(C)c1OCC(=O)N[C@@H](Cc1ccccc1)C[C@H](O)[C@H](Cc1ccccc1)NC(=O)[C@H](CC(C)C)NC(=O)CN1C(=O)CSC1=S` [Compound 30], which EC50 [1] is on record?
**A.** Its EC50 is 0.85 to 100 µM.

**Q.** For `CCCCCCC1=C2C[C@H]3C(C)(C)C[C@@H](OC1=O)[C@@]23C` [Compound 3], which “inhibitory effect on cell growth” value (Vero E6 cells) is on record?
**A.** The value was “none of them exhibited inhibitory effect on cell growth”.

**Q.** And the EC50 [1]?
**A.** Its EC50 is 0.85 to 100 µM.

**Q.** Which “inhibitory effect on cell growth” value (Vero E6 cells) does the source give for `CC(C)[C@H](NC(=O)OCc1ccccc1)C(=O)N[C@@H](Cc1ccccc1)[C@@H](O)[C@H](O)[C@H](Cc1ccccc1)NC(=O)[C@@H](NC(=O)OC(C)(C)C)C(C)C` [Compound 1] here?
**A.** The value was “none of them exhibited inhibitory effect on cell growth”.

**Q.** What about the EC50 [1] of the same molecule?
**A.** The EC50 was 0.85 to 100 µM.

**Q.** `Cc1cccc(C)c1OCC(=O)N[C@@H](Cc1ccccc1)C[C@H](O)[C@H](Cc1ccccc1)NC(=O)[C@H](CC(C)C)NC(=O)CCNC(=O)OC(C)(C)C` [Compound 33] was tested. Which EC50 [1] did it give?
**A.** The EC50 was 0.85 to 100 µM.

**Q.** `CC1(C)CC2C3=CCC4[C@@](C)(CCC5[C@@H](O)C(O[C@@H]6OC(CO)[C@@H](O)[C@@H](O)C6O[C@@H]6OC(CO)[C@@H](O)[C@@H](O)C6O)CC[C@@]54C)C3CC[C@@]2(C)[C@H](O)C1` (stereo partly shown) [Compound 18] was tested. Which EC50 [1] did it give?
**A.** The EC50 was 0.85 to 100 µM.

**Q.** Which “inhibitory effect on cell growth” value (Vero E6 cells) does the source give for `O[C@H]1[C@H](O)[C@@H](OCc2cccc(F)c2)CNC[C@@H]1OCc1cccc(F)c1` [Compound 15] here?
**A.** The value was “none of them exhibited inhibitory effect on cell growth”.

**Q.** What about the EC50 [1] of the same molecule?
**A.** Its EC50 is 0.85 to 100 µM.

**Q.** With `COC(=O)[C@H]1[C@H]2C[C@@H]3c4[nH]c5cc(OC)ccc5c4CCN3C[C@H]2C[C@@H](OC(=O)/C=C/c2cc(OC)c(OC)c(OC)c2)[C@@H]1OC` [Compound 19] as the molecule, how does the EC50 [1] read?
**A.** The EC50 was 0.85 to 100 µM.

**Q.** With `Cc1cccc(C)c1OCC(=O)N[C@@H](Cc1ccccc1)C[C@H](O)[C@H](Cc1ccccc1)NC(=O)[C@H](CC(C)C)NC(=O)COc1ccc2ccccc2c1` [Compound 35] as the molecule, how does the EC50 [1] read?
**A.** The EC50 was 0.85 to 100 µM.

**Q.** Which EC50 [1] does the source give for `Cc1cccc(C)c1OCC(=O)N[C@@H](Cc1ccccc1)C[C@H](O)[C@H](Cc1ccccc1)NC(=O)[C@H](CC(C)C)NC(=O)c1ccc([N+](=O)[O-])o1` [Compound 25] here?
**A.** Its EC50 is 0.85 to 100 µM.

**Q.** Which results are given for `CC(C)[C@H](NC(=O)[C@H](C)NC(=O)OCc1ccccc1)C(=O)N[C@@H](Cc1ccccc1)[C@@H](O)[C@H](O)[C@H](Cc1ccccc1)NC(=O)[C@@H](NC(=O)[C@H](C)NC(=O)OCc1ccccc1)C(C)C` [Compound 2]?
**A.** inhibitory effect on cell growth (Vero E6 cells): none of them exhibited inhibitory effect on cell growth; EC50 [1]: 0.85 to 100 µM

**Q.** `COC(=O)C1[C@H]2C[C@H]3c4[nH]c5ccccc5c4CCN3C[C@H]2CC[C@@H]1O` (stereo partly shown) [Compound 23] was tested. Which EC50 [1] did it give?
**A.** The EC50 was 0.85 to 100 µM.

**Q.** How did the “inhibitory effect on cell growth” value (Vero E6 cells) turn out when `CC[C@H]1OC(=O)[C@H](C)C(=O)[C@H](C)[C@@H](O[C@@H]2C[C@H](C)C[C@H](N(C)C)[C@H]2O)[C@@](C)(OC)C[C@@H](C)CN(C(=O)CCCn2cc(-c3ccc(C(F)(F)F)cc3)nn2)[C@H](C)[C@@H](O)[C@]1(C)O` [Compound 11] was run?
**A.** Its value is “none of them exhibited inhibitory effect on cell growth”.

**Q.** What about the EC50 [1] of the same molecule?
**A.** Its EC50 is 0.85 to 100 µM.

**Q.** Which results are given for `CC(C)=CCC[C@](C)(O)[C@H]1CC[C@@H]2[C@@H]1CC[C@H]1[C@@]2(C)CC[C@H]2C(C)(C)C(=O)CC[C@]12C` [Compound 6]?
**A.** inhibitory effect on cell growth (Vero E6 cells): none of them exhibited inhibitory effect on cell growth; EC50 [1]: 0.85 to 100 µM

**Q.** Which results are given for `CCCCCC12C3=C(c4ccccc4)C(=O)O[C@@H]1CC[C@@H]2C3` (stereo partly shown) [Compound 4]?
**A.** inhibitory effect on cell growth (Vero E6 cells): none of them exhibited inhibitory effect on cell growth; EC50 [1]: 0.85 to 100 µM

**Q.** With `COC(=O)CCCN1C[C@H](OCc2ccccc2)[C@@H](OCc2ccccc2)[C@H](OCc2ccccc2)[C@H]1COCc1ccccc1` [Compound 9] as the molecule, how does the “inhibitory effect on cell growth” value (Vero E6 cells) read?
**A.** Its value is “none of them exhibited inhibitory effect on cell growth”.

**Q.** What about the EC50 [1] of the same molecule?
**A.** The EC50 was 0.85 to 100 µM.

**Q.** With `COc1ccc(/C=C/C(=O)N[C@@H](CC(C)C)C(=O)N[C@@H](Cc2ccccc2)[C@@H](O)C[C@H](Cc2ccccc2)NC(=O)COc2c(C)cccc2C)cc1` [Compound 32] as the molecule, how does the EC50 [1] read?
**A.** The EC50 was 0.85 to 100 µM.

**Q.** Which EC50 [1] does the source give for `COC(=O)[C@H]1[C@H]2C[C@H]3c4[nH]c5ccccc5c4CCN3C[C@@H]2CC[C@@H]1O` [Compound 22] here?
**A.** Its EC50 is 0.85 to 100 µM.

**Q.** `COC(=O)C1=COC[C@H]2CN3CCc4c([nH]c5ccccc45)[C@@H]3C[C@H]12` [Compound 20] was tested. Which EC50 [1] did it give?
**A.** Its EC50 is 0.85 to 100 µM.
